The source made the active and inactive calls. No cut-off for these calls is given here.
How the values were obtained:
[1] = Agonist activity at rat M3'(3C)-Xa receptor expressed in african green monkey COS7 cells assessed as increase in myo-[3H]inositol hydrolysis; format: functional, cell-based; details: COS-7
[2] = Displacement of [3H]NMS from rat M3'(3C)-Xa receptor expressed in african green monkey COS7 cells; format: cell-based; details: cos-7
[3] = tested on: Muscarinic acetylcholine receptor M3 (Rattus norvegicus), P08483 [A91C,T549C]; assay: Inhibition of disulfide bond cross-linking in rat M3'(3C)-Xa receptor A91C/T549C mutant expressed in african green monkey COS7 cells at 1 mM by Western blotting; format: cell-based; details: COS-7
Chain of Muscarinic acetylcholine receptor M3 (Rattus norvegicus), P08483 [A91C,T549C] (P08483 whole entry A91C/T549C): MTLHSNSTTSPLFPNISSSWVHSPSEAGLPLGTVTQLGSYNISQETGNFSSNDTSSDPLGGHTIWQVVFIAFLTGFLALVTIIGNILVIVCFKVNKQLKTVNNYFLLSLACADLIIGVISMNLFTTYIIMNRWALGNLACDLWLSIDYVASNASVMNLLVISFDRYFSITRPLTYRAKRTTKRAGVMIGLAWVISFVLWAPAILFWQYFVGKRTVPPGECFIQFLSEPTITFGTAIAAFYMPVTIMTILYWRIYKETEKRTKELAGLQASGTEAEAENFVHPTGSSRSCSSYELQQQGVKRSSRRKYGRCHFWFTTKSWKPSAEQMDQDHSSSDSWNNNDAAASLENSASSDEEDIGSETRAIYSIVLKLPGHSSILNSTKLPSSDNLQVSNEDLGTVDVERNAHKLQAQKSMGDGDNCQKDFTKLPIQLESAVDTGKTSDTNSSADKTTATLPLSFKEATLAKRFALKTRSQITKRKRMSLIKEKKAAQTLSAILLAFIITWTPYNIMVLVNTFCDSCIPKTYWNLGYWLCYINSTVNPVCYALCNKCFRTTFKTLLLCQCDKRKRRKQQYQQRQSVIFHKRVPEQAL

[4] = tested on: Muscarinic acetylcholine receptor M3 (Rattus norvegicus), P08483 [F92C,F550C]; assay: Inhibition of disulfide bond cross-linking in rat M3'(3C)-Xa receptor F92C/F550C mutant expressed in african green monkey COS7 cells at 1 mM by Western blotting; format: cell-based; details: COS-7
Chain of Muscarinic acetylcholine receptor M3 (Rattus norvegicus), P08483 [F92C,F550C] (P08483 whole entry F92C/F550C): as the sequence (P08483 whole entry A91C/T549C) above, with C91A, F92C, C549T, F550C counted along it

[5] = tested on: Muscarinic acetylcholine receptor M3 (Rattus norvegicus), P08483 [F92C,F550C]; assay: Stimulation of disulfide bond cross-linking formation in rat M3'(3C)-Xa receptor F92C/F550C mutant expressed in african green monkey COS7 cells by scanning densitometry relative to control; format: cell-based; details: COS-7
[6] = tested on: Muscarinic acetylcholine receptor M3 (Rattus norvegicus), P08483 [A91C,T549C]; assay: Inverse agonist activity at rat M3'(3C)-Xa receptor A91C/T549C mutant expressed in african green monkey COS7 cells assessed as reduction in basal inositol monophosphate accumulation at 10 uM; format: functional, cell-based; details: COS-7
[7] = tested on: Muscarinic acetylcholine receptor M3 (Rattus norvegicus), P08483 [A91C,T549C]; assay: Stimulation of disulfide bond cross-linking formation in rat M3'(3C)-Xa receptor A91C/T549C mutant expressed in african green monkey COS7 cells by scanning densitometry relative to control; format: cell-based; details: COS-7
COS-7 = assay: Inverse agonist activity at rat M3'(3C)-Xa receptor expressed in african green monkey COS7 cells assessed as reduction in basal inositol monophosphate accumulation at 10 uM; format: functional, cell-based
[8] = tested on: Muscarinic acetylcholine receptor M3 (Rattus norvegicus), P08483 [F92C,F550C]; assay: Inverse agonist activity at rat M3'(3C)-Xa receptor F92C/F550C mutant expressed in african green monkey COS7 cells assessed as reduction in basal inositol monophosphate accumulation at 10 uM; format: functional, cell-based; details: COS-7
[9] = tested on: Muscarinic acetylcholine receptor M3 (Rattus norvegicus), P08483 [F92C,F550C]; assay: Enhancement of disulfide bond cross-linking formation in rat M3'(3C)-Xa receptor F92C/F550C mutant expressed in african green monkey COS7 cells at 100 nM by Western blotting; format: cell-based; details: COS-7
[10] = tested on: Muscarinic acetylcholine receptor M3 (Rattus norvegicus), P08483 [A91C,T549C]; assay: Enhancement of disulfide bond cross-linking formation in rat M3'(3C)-Xa receptor A91C/T549C mutant expressed in african green monkey COS7 cells at 100 nM by Western blotting; format: cell-based; details: COS-7

With `C[N+](C)(C)CCOC(N)=O` [CARBACHOL] the EC50 [1] was 0.063 µM, the Ki [2] was 23.1 µM and the Activity [3] was “Active”. The Activity [4] was “Active”.
With `C[N+]1(C)[C@@H]2C[C@@H](OC(=O)[C@H](CO)c3ccccc3)C[C@H]1[C@@H]1O[C@@H]12` the Emax [5] was 192%, the Activity [6] was “Active” and the Emax [7] was 244%. For the same compound, the Activity (COS-7) was “Active”, the Activity [8] was “Active” and the Activity [9] was “Active”. For the same compound, the Activity [10] was “Active”.
In the case of `C[N+](C)(C)CC#CCN1CCCC1=O`, the Activity [3] is reported as “Active” and the Activity [4] is reported as “Active”.
For `CN1[C@@H]2CC[C@H]1C[C@@H](OC(=O)C(CO)c1ccccc1)C2` (stereo partly specified), the Activity (COS-7) was “Active”, the Activity [9] was “Active” and the Activity [10] was “Active”.
